The supplement of paper PMC9663587

Columns and labels:
[1] = compound: C=CC(=O)Nc1ccc(C(=O)Nc2[nH]nc3c2CN(C(=O)N[C@H](CN(C)C)c2ccccc2)C3(C)C)cc1 [YKL-5-124]; experiment: increase in dead-cell fraction, 72 h; higher = more death;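 further: breast cancer cell lines in 384-well plates, stained with Hoechst plus LIVE/DEAD far red dye and imaged, cells above an LDR intensity threshold counted dead, Hoechst-negative corpses included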
[2] = compound: CC(=O)c1c(C)c2cnc(Nc3ccc(N4CCN(CCOCCOCCOCCNC(=O)COc5cccc6c5C(=O)N(C5CCC(=O)NC5=O)C6=O)CC4)cn3)nc2n(C2CCCC2)c1=O [BSJ-03-123]; experiment: as above
[3] = compound: CC(=O)c1c(C)c2cnc(Nc3ccc(N4CCNCC4)cn3)nc2n(C2CCCC2)c1=O; experiment: as above
[4] = compound: CCN1CCN(Cc2ccc(Nc3ncc(F)c(-c4cc(F)c5nc(C)n(C(C)C)c5c4)n3)nc2)CC1; experiment: as above
[5] = compound: T1, CCOc1cc2ncc(C#N)c(Nc3ccc(OCc4ccccn4)c(Cl)c3)c2cc1NC(=O)/C=C/CN(C)C [Neratinib/HKI272]; experiment: as above
[6] = compound: CCc1cnn2c(NCc3ccc[n+]([O-])c3)cc(N3CCCC[C@H]3CCO)nc12; experiment: as above
[7] = compound: CN(C)C(=O)c1cc2cnc(Nc3ccc(N4CCNCC4)cn3)nc2n1C1CCCC1 [LEE011/Ribociclib]; experiment: as above
[8] = compound: CN(C)C/C=C/C(=O)Nc1ccc(C(=O)N2CCC[C@@H](Nc3ncc(Cl)c(-c4c[nH]c5ccccc45)n3)C2)cc1 [THZ531]; experiment: as above
[9] = compound: T2, CN(C)C/C=C/C(=O)Nc1ccc(C(=O)Nc2cccc(Nc3ncc(Cl)c(-c4c[nH]c5ccccc45)n3)c2)cc1 [THZ1]; experiment: as above
[10] = compound: CN1CC[C@H](c2c(O)cc(O)c3c(=O)cc(-c4ccccc4Cl)oc23)[C@H](O)C1 [Flavopiridol]; experiment: as above
[11] = compound: T1, Neratinib/HKI272; experiment: GR value, 72 h; higher = faster growth (1 = untreated, <0 = killing);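 further: breast cancer and non-malignant breast epithelial lines, nine half-log doses, viable cells counted by Hoechst and LIVE/DEAD dye imaging versus time-zero plates and DMSO controls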
[12] = compound: T2, THZ1; experiment: as above

For BT474, the “increase in dead-cell fraction” value ([1]; 0.001 µM) was 0.0145, the “increase in dead-cell fraction” value ([1]; 0.003162 µM) was 0.0218 and the “increase in dead-cell fraction” value ([1]; 0.01 µM) was 0.019. The “increase in dead-cell fraction” value ([1]; 0.03162 µM) was 0.0189, the “increase in dead-cell fraction” value ([1]; 0.1 µM) was 0.0303 and the “increase in dead-cell fraction” value ([1]; 0.3162 µM) was 0.0351. The “increase in dead-cell fraction” value ([1]; 1 µM) was 0.0209, the “increase in dead-cell fraction” value ([1]; 3.162 µM) was 0.0235 and the “increase in dead-cell fraction” value ([1]; 10 µM) was 0.182. The “increase in dead-cell fraction” value ([2]; 0.001 µM) was 0.0078, the “increase in dead-cell fraction” value ([2]; 0.003162 µM) was 0.0052 and the “increase in dead-cell fraction” value ([2]; 0.01 µM) was 0.0155. The “increase in dead-cell fraction” value ([2]; 0.03162 µM) was 0.004, the “increase in dead-cell fraction” value ([2]; 0.1 µM) was 0.0074 and the “increase in dead-cell fraction” value ([2]; 0.3162 µM) was 0.0224. The “increase in dead-cell fraction” value ([2]; 1 µM) was 0.0243, the “increase in dead-cell fraction” value ([2]; 3.162 µM) was 0.0241 and the “increase in dead-cell fraction” value ([2]; 10 µM) was 0.0415. The “increase in dead-cell fraction” value ([3]; 0.0003162 µM) was -0.0048, the “increase in dead-cell fraction” value ([3]; 0.001 µM) was -0.0003 and the “increase in dead-cell fraction” value ([3]; 0.003162 µM) was -0.0027. For the same cell line, the “increase in dead-cell fraction” value ([3]; 0.01 µM) was 0.0006, the “increase in dead-cell fraction” value ([3]; 0.03162 µM) was 0.0074 and the “increase in dead-cell fraction” value ([3]; 0.1 µM) was 0.0103. For the same cell line, the “increase in dead-cell fraction” value ([3]; 0.3162 µM) was 0.0169, the “increase in dead-cell fraction” value ([3]; 1 µM) was 0.0196 and the “increase in dead-cell fraction” value ([3]; 3.162 µM) was 0.0256. The “increase in dead-cell fraction” value ([4]; 0.001 µM) was -0.005, the “increase in dead-cell fraction” value ([4]; 0.003162 µM) was -0.0017 and the “increase in dead-cell fraction” value ([4]; 0.01 µM) was 0.0057. The “increase in dead-cell fraction” value ([4]; 0.03162 µM) was 0.0071, the “increase in dead-cell fraction” value ([4]; 0.1 µM) was 0.0213 and the “increase in dead-cell fraction” value ([4]; 0.3162 µM) was 0.01. The “increase in dead-cell fraction” value ([4]; 1 µM) was 0.0104, the “increase in dead-cell fraction” value ([4]; 3.162 µM) was 0.0016 and the “increase in dead-cell fraction” value ([4]; 10 µM) was 0.0194. For the same cell line, the “increase in dead-cell fraction” value ([5]; 0.0003162 µM) was 0.0014, the “increase in dead-cell fraction” value ([5]; 0.001 µM) was 0.0075 and the “increase in dead-cell fraction” value ([5]; 0.003162 µM) was 0.0456. For the same cell line, the “increase in dead-cell fraction” value ([5]; 0.01 µM) was 0.235, the “increase in dead-cell fraction” value ([5]; 0.03162 µM) was 0.359 and the “increase in dead-cell fraction” value ([5]; 0.1 µM) was 0.369. The “increase in dead-cell fraction” value ([5]; 0.3162 µM) was 0.38, the “increase in dead-cell fraction” value ([5]; 1 µM) was 0.438 and the “increase in dead-cell fraction” value ([5]; 3.162 µM) was 0.471. For the same cell line, the “increase in dead-cell fraction” value ([6]; 0.0001 µM) was -0.0025, the “increase in dead-cell fraction” value ([6]; 0.0003162 µM) was -0.0015 and the “increase in dead-cell fraction” value ([6]; 0.001 µM) was -0.0013. For the same cell line, the “increase in dead-cell fraction” value ([6]; 0.003162 µM) was -0.002, the “increase in dead-cell fraction” value ([6]; 0.01 µM) was 0.0053 and the “increase in dead-cell fraction” value ([6]; 0.03162 µM) was 0.207. For the same cell line, the “increase in dead-cell fraction” value ([6]; 0.1 µM) was 0.246, the “increase in dead-cell fraction” value ([6]; 0.3162 µM) was 0.265 and the “increase in dead-cell fraction” value ([6]; 1 µM) was 0.249. The “increase in dead-cell fraction” value ([7]; 0.001 µM) was 0.0109, the “increase in dead-cell fraction” value ([7]; 0.003162 µM) was 0.0057 and the “increase in dead-cell fraction” value ([7]; 0.01 µM) was 0.0072. For the same cell line, the “increase in dead-cell fraction” value ([7]; 0.03162 µM) was 0.0158, the “increase in dead-cell fraction” value ([7]; 0.1 µM) was 0.0086 and the “increase in dead-cell fraction” value ([7]; 0.3162 µM) was 0.0122. For the same cell line, the “increase in dead-cell fraction” value ([7]; 1 µM) was 0.0254, the “increase in dead-cell fraction” value ([7]; 3.162 µM) was 0.0157 and the “increase in dead-cell fraction” value ([7]; 10 µM) was 0.0109. The “increase in dead-cell fraction” value ([8]; 0.0001 µM) was -0.0031, the “increase in dead-cell fraction” value ([8]; 0.0003162 µM) was 0.0048 and the “increase in dead-cell fraction” value ([8]; 0.001 µM) was 0.003. For the same cell line, the “increase in dead-cell fraction” value ([8]; 0.003162 µM) was -0.0009, the “increase in dead-cell fraction” value ([8]; 0.01 µM) was -0.0036 and the “increase in dead-cell fraction” value ([8]; 0.03162 µM) was 0.0037. For the same cell line, the “increase in dead-cell fraction” value ([8]; 0.1 µM) was 0.17, the “increase in dead-cell fraction” value ([8]; 0.3162 µM) was 0.413 and the “increase in dead-cell fraction” value ([8]; 1 µM) was 0.229. For the same cell line, the “increase in dead-cell fraction” value ([9]; 0.0001 µM) was -0.0007, the “increase in dead-cell fraction” value ([9]; 0.0003162 µM) was -0.0012 and the “increase in dead-cell fraction” value ([9]; 0.001 µM) was -0.0015. For the same cell line, the “increase in dead-cell fraction” value ([9]; 0.003162 µM) was -0.0036, the “increase in dead-cell fraction” value ([9]; 0.01 µM) was 0.0152 and the “increase in dead-cell fraction” value ([9]; 0.03162 µM) was 0.0225. The “increase in dead-cell fraction” value ([9]; 0.1 µM) was 0.175, the “increase in dead-cell fraction” value ([9]; 0.3162 µM) was 0.221 and the “increase in dead-cell fraction” value ([9]; 1 µM) was 0.139. For the same cell line, the “increase in dead-cell fraction” value ([10]; 0.0001 µM) was 0.0042, the “increase in dead-cell fraction” value ([10]; 0.0003162 µM) was 0.0024 and the “increase in dead-cell fraction” value ([10]; 0.001 µM) was -0.0008. The “increase in dead-cell fraction” value ([10]; 0.003162 µM) was 0.0046, the “increase in dead-cell fraction” value ([10]; 0.01 µM) was -0.0017 and the “increase in dead-cell fraction” value ([10]; 0.03162 µM) was 0.003. For the same cell line, the “increase in dead-cell fraction” value ([10]; 0.1 µM) was 0.0067, the “increase in dead-cell fraction” value ([10]; 0.3162 µM) was 0.0397 and the “increase in dead-cell fraction” value ([10]; 1 µM) was 0.274. The GR value ([11]; 0.0003162 µM) was 0.989 GR, the GR value ([11]; 0.001 µM) was 0.784 GR and the GR value ([11]; 0.003162 µM) was -0.125 GR. It also gave a GR value ([11]; 0.01 µM) of -0.734 GR, a GR value ([11]; 0.03162 µM) of -0.825 GR and a GR value ([11]; 0.1 µM) of -0.86 GR. It also gave a GR value ([11]; 0.3162 µM) of -0.874 GR, a GR value ([11]; 1 µM) of -0.895 GR and a GR value ([11]; 3.162 µM) of -0.922 GR. It also gave a GR value ([12]; 0.0001 µM) of 1 GR, a GR value ([12]; 0.0003162 µM) of 0.971 GR and a GR value ([12]; 0.001 µM) of 0.687 GR. The GR value ([12]; 0.003162 µM) was 0.659 GR, the GR value ([12]; 0.01 µM) was 0.571 GR and the GR value ([12]; 0.03162 µM) was 0.441 GR. The GR value ([12]; 0.1 µM) was -0.627 GR, the GR value ([12]; 0.3162 µM) was -0.683 GR and the GR value ([12]; 1 µM) was -0.617 GR.
